Data published in patent EP0289604A1, “2-METHYLMERCAPTO-3-CYANO-4-(O-DIFLUOROMETHOXYPHENYL)-6-PHENYL-1,4-DIHYDROPYRIDINE” (INSTITUT ORGANICHESKOGO SINTEZA AKADEMII NAUK LATVIISKOI SSR, priority 1986, dated 1988).

Columns and labels:
[1] = test system: spontan hypertensiven Ratten (SHR); assay: Hypotensive effect in spontaneously hypertensive rats, single intragastric administration; type: in vivo; conditions: for Der hypotensive Effekt, % an SHR nach 48 Stunden: after 48 hours; for Dauer der hypotensiven Wirkung: single intragastric dose 10 mg/kg (similar dose for comparators), time over which the effect is detected or after which it ends
[2] = Solubility and stability of the substance; type: physicochemical
Description: Die genannte Verbindung stellt eine kristalline Substanz vom 128 bis I30°C Schm.p. dar. […] Diese Verbindung ist sowohl in kristallinem Zustand als auch in Porm von Lösungen in organischen Lösungsmitteln stabil.

[3] = in vivo; conditions: mouse, ip, white outbred mice, intraperitoneal administration
[4] = test system: spontan hypertensiven Ratten; assay: Hypotensive effect in spontaneously hypertensive rats, repeated intragastric administration for 10 days; type: in vivo; conditions: SHR
[5] = dose 10 mg/kg, single intragastric administration, after 6 hours
[6] = dose 10 mg/kg, single intragastric administration

Row | Structure (SMILES) | Der hypotensive Effekt, % an SHR nach I Stunden ([1]; dose 10 mg/kg, single intragastric administration, after 1 hour) [%] | Der hypotensive Effekt, % an SHR nach 6 Stunden [1, 5] [%] | Der hypotensive Effekt, % an SHR nach 24 Stunden ([1]; dose 10 mg/kg, single intragastric administration, after 24 hours) [%] | Der hypotensive Effekt, % an SHR nach 48 Stunden [1, 6] [%] | Dauer der hypotensiven Wirkung [1] [Stunden] | Stabilität ([2]; in crystalline state and as solutions in organic solvents) | Löslichkeit in Methyl-, Äthylalkohol, Azeton, Chloroform ([2]; organic solvents) | Löslichkeit in Wasser ([2]; water) | LD50 [3] [mg/kg] | systolische Blutdruck herabgesetzt zum 10. Einführungstag ([4]; 10 mg/kg intragastric once daily for 10 days) [%] | arterielle Blutdruck erreichte das Ausgangsniveau nach dem Aufhören der Einführung ([4]; after stopping 10 mg/kg intragastric once daily for 10 days) [Tagen] | systolische Blutdruck herabgesetzt ([1]; single intragastric dose 10 mg/kg, after 6 hours) [%] | Effekt der Senkung des systolischen arteriellen Blutdrucks, Zeit nach der Einführung ([1]; single intragastric dose 10 mg/kg, onset of effect) [Minuten]
1 | COC(=O)C1=C(C)NC(C)=C(C(=O)OC)C1c1ccccc1[N+](=O)[O-] [Nifedipine, 2,6-Dimethyl-3,5-dimethoxykarbonyl-4-(o-nithophenyl)-I,4-di-hydropyridin, reference compound] | 34 | 23 | 0 | 0 | 6 | – | – | – | – | – | – | – | –
2 | CSC1=C(C#N)C(c2ccccc2OC(F)F)C=C(c2ccccc2)N1 (stereo not shown) [Die erfindungsgemässe Verbindung, 2-Methylmerkapto-3-zyano-4-(o-difluormethoxyphenyl)-6-phenyl-I,4-dihydropyridin] | – | 24 | – | 6 | ≤ 48 | stabil | gut löslich | praktisch unlöslich | > 5000 | 26 | ≤ 3 | 21 | 30
